# Reference: patent publication US11147803B2, “Dementia therapeutic agent combining pyrazoloquinoline derivative and memantine” (Eisai R&D Management Co., Ltd., priority 2017, dated 2021)
# Tested on: rats with scopolamine-induced cognitive impairment
# Assay: Novel object recognition test using rats with scopolamine-induced cognitive impairment
# Assay type: in vivo, rat (Long Evans)
# Details: for percentage of exploration of the novel object in T2: scopolamine 0.7 mg/kg s.c., mean±standard error
# Description: [Test Example 1] Novel Object Recognition Test Using Rats with Scopolamine-Induced Cognitive Impairment
# Acetylcholine nervous system disorder has been reported in Alzheimer's disease (Whitehouse et al., Science, 1982, vol. 215, p. 1237), and scopolamine-administered animals are utilizable as an animal model for Alzheimer's disease. Scopolamine is a muscarine receptor inhibitor which blocks acetylcholine nervous system transmission.
# 6-week-old male Long Evans rats (Institute for Animal Reproduction) were subjected to the test. A habituation process to the experimental procedure was carried out once per day for 2 days prior to the test. In the habituation process, a vehicle was administered to the rats, and then the rats were placed in an empty test apparatus (40 cm×30 cm×45 cm height) and allowed to explore for 3 minutes, and after then placed in a waiting chamber (13 cm×30 cm×45 cm height) for about 1 minute, they were returned to the empty test apparatus again and left for 5 minutes.
# An acquisition trial (T1) was carried out on the day of the test. Compound (I) was orally administered 2 hours before T1. Memantine hydrochloride was orally administered 1 hour before T1. Scopolamine (Wako Pure Chemical Industries, Ltd.) was subcutaneously administered 30 minutes before T1 at a dose of 0.7 mg/kg. In T1, the rats were habituated to the empty test apparatus for 3 minutes and then placed in the waiting chamber. After setting two identical objects in the test apparatus, the rats were returned into the test apparatus again and allowed to freely explore the two identical objects for 5 minutes. The rats were then returned into their rearing cages. After 2 hours, a retention trial (T2) was carried out. The rats were placed in the empty test apparatus for 3 minutes for habituation, and were then transferred into the waiting chamber. After setting an object used in T1 (“familiar” object) and an object not used in T1 (“novel” object) in the test apparatus, the rats were again returned into the test apparatus and allowed to freely explore these objects for 3 minutes. The objects were wiped with a wet wipe impregnated with ethanol after each experiment so as to leave no trace of odor. The behaviors of the rats during T1 and T2 were recorded by a digital video camera, and the total exploration time for each object was manually measured using a stopwatch. Exploratory behavior was defined as the behavior in which the rat brings its nose within 2 cm of the object and directs its nose toward the object.
# In the novel object recognition test, the percentage of exploration of the novel object in T2 is considered to be an index for amnesia, reflecting discrimination between the familiar object and the novel object. The percentage of exploration of the novel object was calculated by the following formula. The percentage of exploration of the novel object (%)=N/(N+F)×100 F: time spent in exploring the familiar object N: time spent in exploring the novel object
# Rats whose total time spent in exploring the objects during T1 or T2 was 10 seconds or less or rats whose percentage of the time spent in exploring either of the objects during T1 was not less than 70% or not more than 30% of the total exploration time were excluded from the data analysis.
# The results were expressed as mean±standard error. The difference between the normal control group untreated with scopolamine and the disease control group treated with scopolamine was analyzed by an unpaired t-test (significant difference: *). The difference between the disease control group and the single drug-treated group was analyzed by Dunnett-type multiple comparison test (significant difference: #). The difference between the combined treatment group and the single drug-treated group was analyzed by an unpaired t-test (significant difference: ※). A value of p<0.05 was judged to be a statistically significant difference. Statistical analysis was conducted using GraphPad Prism version 5.04 or 6.02.
smiles,measurement,setting,value
"COc1ncc(C)c(-c2ccc3c(c2)[nH]c(=O)c2cnn([C@H]4CCOC4)c23)c1C [Compound (I), (S)-7-(2-methoxy-3,5-dimethylpyridin-4-yl)-1-(tetrahydrofuran-3-yl)-1H-pyrazolo[4,3-c]quinoline-4(5H)-one]",percentage of exploration of the novel object in T2,Compound (I) 0.3 mg/kg orally 2 hours before T1,58.7 ± 3.2%
same,percentage of exploration of the novel object in T2,Compound (I) 1 mg/kg orally 2 hours before T1,59.9 ± 3.4%
same,percentage of exploration of the novel object in T2,"Compound (I) 3.3 mg/kg orally 2 hours before T1, # significant vs disease control",68.5 ± 2.0# %
same,percentage of exploration of the novel object in T2,"Compound (I) 10 mg/kg orally 2 hours before T1, # significant vs disease control",68.5 ± 1.6# %
same,ameliorative effect on the percentage of exploration of the novel object (significance vs disease control),compound (I) 1 mg/kg (Table 1),did not exhibit a significant effect
same,ameliorative effect on the percentage of exploration of the novel object (significance vs disease control),compound (I) 3.3 mg/kg (Table 2),significant ameliorative effect
"CC12CC3CC(C)(C1)CC(N)(C3)C2 [Memantine, memantine]",percentage of exploration of the novel object in T2,Memantine 1 mg/kg orally 1 hour before T1,58.1 ± 2.4%
same,percentage of exploration of the novel object in T2,"Memantine 3 mg/kg orally 1 hour before T1, # significant vs disease control",68.9 ± 4.0# %
same,percentage of exploration of the novel object in T2,Memantine 10 mg/kg orally 1 hour before T1,59.9 ± 3.8%
same,ameliorative effect on the percentage of exploration of the novel object (significance vs disease control),memantine hydrochloride 1 mg/kg alone (Table 4),no significant ameliorative effect
same,ameliorative effect on the percentage of exploration of the novel object (significance vs disease control),memantine hydrochloride 3 mg/kg (Table 3),significant ameliorative effect
